This test concerns the target T1, MbAhpC (Mycobacterium tuberculosis, UniProt P9WQB7).
T1 construct: gene ahpC
The following applies: read-out: K m ± SD.

T1 sequence (P9WQB7 whole entry): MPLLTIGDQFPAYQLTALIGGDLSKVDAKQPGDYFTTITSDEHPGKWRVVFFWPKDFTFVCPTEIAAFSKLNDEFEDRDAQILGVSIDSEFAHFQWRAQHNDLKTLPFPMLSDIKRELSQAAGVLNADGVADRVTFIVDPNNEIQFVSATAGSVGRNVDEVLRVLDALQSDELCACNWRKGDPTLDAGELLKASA

Take `CC(C)(C)OO` [tert-butyl hydroperoxide]: the Km stood at 2230 ± 490 nM.

(Values after PMC5505994 (Scientific Reports, 2017).)
